This is an account of results in article PMC8868160, “Antioxidant and Anti-α-Glucosidase Activities of Various Solvent Extracts and Major Bioactive Components from the Fruits of Crataegus pinnatifida” (Antioxidants, 2022).

Read-outs that look alike come from different tables or passages of the source.

A short description of test [1]: Ferric reducing antioxidant power (FRAP). The format is biochemical. Here is the method:
Ferric reducing antioxidant power was measured based on previous study with slight modification. The working solution was mixed with acetate buffer (pH 3.6), ferric chloride solution (20 mM), and TPTZ solution (10 mM TPTZ in 40 mM HCl) in a proportion of 10:1:1, respectively, and freshly prepared before used. An amount of 900 μL of the working solution was warmed to 37 °C and then mixed with 100 μL of the diluted sample, blank or standard in a microcentrifuge tube. The tubes were vortexed and in the dry bath at 37 °C for 40 min. Absorbance was measured at 593 nm. […] Results are expressed in mM TE/g dry weight. Additional dilution was needed if the FRAP value measured was over the linear range of the standard curve.

A short description of test [2]: ABTS radical scavenging activity. The class given is biochemical. How it is done: ABTS radical scavenging activity of each extract was measured based on the method with slight changes. In brief, the stock of working solution was prepared by the mix of 28 mM ABTS solution and 9.6 mM potassium persulfate with ddH2O (final concentration, 1/1, v/v) and leaving the mixture in the dark for about 16 h at room temperature before use. The working solution was diluted by EtOH to reach the absorbance of 0.70 ± 0.02 at 740 nm for further experiments. Different concentrations (200, 100, 50, 20, and 12.5 µg/mL) of extracts or compounds (10 µL) were mixed with the working solution (190 μL). The mixture was incubated at room temperature for 6 min, the antioxidant activity of the mixture was determined by calculating the decrease in absorbance measured at 740 nm by the following equation:ABTS radical inhibiting activity (%) = (Ac − At)/Ac × 100,
Where Ac and At are the absorbance of the control (untreated group) and test sample, respectively. The IC50 values of all tested activities were determined by the liner regression of the percentage of remaining ABTS radical against the sample’s concentration.

The nature of test [3]: DPPH radical scavenging activity. The class given is biochemical. Here is the method:
The scavenging activity of DPPH radical was investigated as described with slight modification. DPPH solution was prepared diluted by EtOH to reach the final concentration of 200 µM. Different concentrations (200, 100, 50, 25, and 12.5 µg/mL) of extracts or compounds (100 µL) were mixed with DPPH solution (100 µL) and incubated for 30 min at room temperature and in darkness, and the absorbance of the mixture was measured at 520 nm. DPPH radical scavenging activity was calculated with the following formula: DPPH scavenging activity (%) = (Ac − At)/Ac × 100, where At is the absorbance of the test sample, and Ac is the absorbance of the control (untreated group). BHT was used as the positive control. All half-maximal inhibitory concentration (IC50) values of tested activities were determined by the linear regression of the percentage of remaining DPPH radical against the sample’s concentration.
On the technique in general: DPPH is a stable violet radical that fades when it is reduced.

Test [4] is described as follows: Hydroxyl radical scavenging activity (Fenton reaction, deoxyribose). The format is biochemical. Here is the method:
The scavenging activity of hydroxyl radical was measured based on the method described by Mathew and Abraham with slight revision. In short, different concentrations (400, 200, 10, 50, and 25 µg/mL) of extracts or compounds (200 μL) were mixed with working solution (200 μL) contained 1 mM FeCl3, 1 mM EDTA, and 2.8 mM deoxyribose. Then, 20 μL ascorbic acid (1 mM) and 100 μL H2O2 (20 mM) in sodium phosphate buffer (20 mM pH 7.4) was added. The mixture was incubated in a water bath at 37 °C for 1 h to trigger the Fenton reaction and form a hydroxyl radical. After incubation, 2.8% TCA (200 μL) and 1% TBA (200 μL) were added and boiled in the dry bath at 100 °C for 1 h. The mixture was measured at 532 nm by the following equation:Hydroxyl radical scavenging activity (%) = (Ac − At)/Ac × 100, where At and Ac are the absorbance of the test sample and the control (untreated group), respectively. The IC50 values of all tested activities were determined by the linear regression of the percentage of remaining hydroxyl radical against the sample’s concentration.

In another test the target is T1, α-glucosidase (Saccharomyces cerevisiae, UniProt P53341).
T1 construct: purchased Sigma-Aldrich
T1 sequence (P53341 whole entry): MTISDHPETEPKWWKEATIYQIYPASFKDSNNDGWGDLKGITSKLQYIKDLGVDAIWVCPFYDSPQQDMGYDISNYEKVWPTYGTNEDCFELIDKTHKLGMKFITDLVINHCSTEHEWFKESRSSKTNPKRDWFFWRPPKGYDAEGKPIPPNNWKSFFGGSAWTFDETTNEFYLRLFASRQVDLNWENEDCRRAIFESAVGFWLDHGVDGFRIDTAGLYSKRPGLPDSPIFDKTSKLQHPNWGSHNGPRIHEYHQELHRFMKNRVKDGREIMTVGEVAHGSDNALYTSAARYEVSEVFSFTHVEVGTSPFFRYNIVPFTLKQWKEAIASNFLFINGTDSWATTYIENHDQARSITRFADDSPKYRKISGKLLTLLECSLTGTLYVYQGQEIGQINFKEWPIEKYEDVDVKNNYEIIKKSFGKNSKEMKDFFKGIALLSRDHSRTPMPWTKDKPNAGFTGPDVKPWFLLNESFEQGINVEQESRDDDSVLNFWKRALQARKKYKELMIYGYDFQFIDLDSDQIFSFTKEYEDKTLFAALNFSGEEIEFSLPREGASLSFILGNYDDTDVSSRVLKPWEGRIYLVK
The test is described as follows: biochemical. Here is the method: The inhibition assay of α-glucosidase was conducted using the conditions previously reported with slight modifications. The α-Glucosidase solution was diluted by 0.1 M sodium phosphate buffer (pH 6.8) to 1 U/mL. […] Subsequently, p-NPG (0.53 mM; 380 μL), the substrate, was added and incubated in dry baths at 37 °C for 40 min after the mixture vortexed. The reaction was terminated after adding 0.1 M Na2CO3 solution (500 μL). The absorbance of released p-nitrophenol (p-PNP) was measured by calculating the decrease in absorbance measured at 400 nm by the following equation:α-Glucosidase inhibition (%) = (Ac − At)/Ac × 100, where Ac is the absorbance of the control (untreated group), and At is the absorbance of the test sample. The IC50 values of all tested activities were determined by the linear regression of the percentage of remaining α-glucosidase against the sample concentration.

Test [5] in a line: Superoxide radical scavenging activity (PMS/NADH-NBT system). The format is biochemical. Conditions: isolated components (Table 5). Here is the method: The scavenging activity of superoxide anion radical (O2^•−) was evaluated using a modified method. NBT (300 μM), NADH (468 μM), and PMS (120 μM) were prepared with dilution by Tris-HCl buffer (16 mM, pH 8.0), respectively. An amount of 50 μL of NBT, PMS, and different concentrations (400, 200, 10, 50, and 25 µg/mL) of extracts or compounds were mixed. An amount of 50 μL NADH solution was added, and the reaction was initiated to produce superoxide radicals. The absorbance was measured at 560 nm after incubating at room temperature for 5 min. The scavenging activity was measured by the following equation:Superoxide radical scavenging activity = (Ac − At)/Ac × 100, where At is the absorbance of the test sample, and Ac is the absorbance of the control (untreated group). The IC50 values of all tested activities were determined by the linear regression of the percentage of remaining superoxide radical against the sample concentration.

The mark [6] stands for this setting: isolated components, mM Trolox equivalents per gram (Table 5).
The mark [7] stands for this setting: isolated components, BHT positive control (Table 5).
The mark [8] stands for this setting: solvent extracts, BHT positive control (Table 2).

As to `Cc1cc(C(C)(C)C)c(O)c(C(C)(C)C)c1` [BHT, Butylated hydroxytoluene, reference compound], the “FRAP (TE)” value in test [1] (setting [6]) and in test [1] (millimolar Trolox equivalents per gram of extract (Table 2)) was 4257.97 ± 44.90 mM/g in each case. Further, the “ABTS IC50” value came out at 16.13 ± 3.29 µg/mL in test [2] (setting [7]) and 12.34 ± 0.29 µg/mL in test [2] (setting [8]). Further, the “DPPH IC50” value in test [3] (setting [7]) was 24.04 ± 4.40 µg/mL; in test [3] (solvent extracts of C. pinnatifida fruits, BHT positive control (Table 2)), 34.28 ± 1.40 µg/mL. Also, the “Hydroxyl IC50” value was 60.62 ± 2.58 µg/mL in test [4] (setting [7]) and 61.51 ± 2.46 µg/mL in test [4] (setting [8]).
One may read the IC50 as the midpoint of a concentration-inhibition curve. For `O=c1c(O[C@@H]2O[C@H](CO)[C@H](O)[C@H](O)[C@H]2O)c(-c2ccc(O)c(O)c2)oc2cc(O)cc(O)c12` [Hyperoside, hyperoside], inhibition at α-glucosidase was half-maximal at 75.3 µM (IC50). Moreover, in test [2] (setting [7]), the “ABTS IC50” value was determined as 18.00 ± 0.16 µg/mL. The “DPPH IC50” value in test [3] (setting [7]) came out at 5.29 ± 0.17 µg/mL. The “Superoxide IC50” value in test [5] amounted to 10.59 ± 0.22 µg/mL.
In the case of `Oc1cc(O)c2c(c1)O[C@H](c1ccc(O)c(O)c1)[C@H](O)C2` [Epicatechin, epicatechin], the IC50 on α-glucosidase (read-out: α-Glucosidase IC50 (converted)) was 282 µM. The “FRAP (TE)” value in test [1] (setting [6]) is listed as 13,165.19 ± 42.42 mM/g; in test [1] (isolated components, mM Trolox equivalents per gram (Table 5), listed as epicatechin) it was at least 7726.67 ± 39.97 mM/g. The “ABTS IC50” value in test [2] (setting [7]) turned out to be 3.75 ± 0.03 µg/mL. Also, in test [3] (setting [7]), the “DPPH IC50” value was 2.53 ± 0.25 µg/mL. Further, the “Hydroxyl IC50” value in test [4] (setting [7]) amounted to 20 ± 3.49 µg/mL. Also, the “Superoxide IC50” value in test [5] stood at 41.56 ± 0.20 µg/mL.
`Oc1cc(O)c2c(c1)O[C@H](c1ccc(O)c(O)c1)[C@H](O)[C@H]2c1c(O)cc(O)c2c1O[C@H](c1ccc(O)c(O)c1)[C@H](O)C2` [Procyanidin B2, procyanidin B2] had an IC50 against α-glucosidase of 205 µM. Further, the “FRAP (TE)” value is on record as 11,092.44 ± 32.92 mM/g in test [1] (setting [6]) and at least 7726.67 ± 39.97 mM/g in test [1] (isolated components, mM Trolox equivalents per gram (Table 5), listed as procyanidin B2). For the same compound, the “ABTS IC50” value in test [2] (setting [7]) was found to be 2.91 ± 0.57 µg/mL. For the same compound, the “DPPH IC50” value in test [3] (setting [7]) amounted to 2.81 ± 0.08 µg/mL. Besides, in test [4] (setting [7]), the “Hydroxyl IC50” value came out at 13.69 ± 1.88 µg/mL. Moreover, the “Superoxide IC50” value in test [5] came out at 37.22 ± 0.63 µg/mL.
